According to PMC12648285 (JACS Au, 2025):
Blank lines part the entries; values can stand above or below the compound they belong to.

Columns and labels:
TRKA (440-796) [1] = target: T1, TRKA (440-796) (Homo sapiens, UniProt P04629); assay: Site mapping using LC-MS/MS, TRKA+7; format: binding
[2] = target: TRKA kinase domain (440-796) (Homo sapiens, UniProt P04629); assay: Intact protein mass spectrometry, covalent labelling of TRKA; format: binding; conditions: intact protein MS, 2 h incubation, 25 °C, compound/protein 10:1
Chain of TRKA kinase domain (440-796) (P04629 440-796): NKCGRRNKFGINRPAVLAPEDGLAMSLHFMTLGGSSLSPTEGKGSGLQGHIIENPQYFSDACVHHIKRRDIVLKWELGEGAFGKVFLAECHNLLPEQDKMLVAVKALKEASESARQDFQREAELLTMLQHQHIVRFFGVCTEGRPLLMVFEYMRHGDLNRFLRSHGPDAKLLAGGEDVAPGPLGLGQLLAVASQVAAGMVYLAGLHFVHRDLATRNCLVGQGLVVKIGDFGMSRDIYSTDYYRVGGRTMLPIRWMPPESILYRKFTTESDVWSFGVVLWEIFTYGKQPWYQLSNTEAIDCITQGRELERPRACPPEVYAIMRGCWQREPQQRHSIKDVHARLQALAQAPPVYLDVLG

[3] = system: p-TRKA and p-AKT in KM12-Luc cells; assay: Western blot of TRKA activation and downstream signalling in KM12-Luc cells; format: cell-based; conditions: 6 h
TRKA = TRKA (Homo sapiens, UniProt P04629); assay: TRKA kinase biochemical assay
Chain of TRKA (P04629 33-796): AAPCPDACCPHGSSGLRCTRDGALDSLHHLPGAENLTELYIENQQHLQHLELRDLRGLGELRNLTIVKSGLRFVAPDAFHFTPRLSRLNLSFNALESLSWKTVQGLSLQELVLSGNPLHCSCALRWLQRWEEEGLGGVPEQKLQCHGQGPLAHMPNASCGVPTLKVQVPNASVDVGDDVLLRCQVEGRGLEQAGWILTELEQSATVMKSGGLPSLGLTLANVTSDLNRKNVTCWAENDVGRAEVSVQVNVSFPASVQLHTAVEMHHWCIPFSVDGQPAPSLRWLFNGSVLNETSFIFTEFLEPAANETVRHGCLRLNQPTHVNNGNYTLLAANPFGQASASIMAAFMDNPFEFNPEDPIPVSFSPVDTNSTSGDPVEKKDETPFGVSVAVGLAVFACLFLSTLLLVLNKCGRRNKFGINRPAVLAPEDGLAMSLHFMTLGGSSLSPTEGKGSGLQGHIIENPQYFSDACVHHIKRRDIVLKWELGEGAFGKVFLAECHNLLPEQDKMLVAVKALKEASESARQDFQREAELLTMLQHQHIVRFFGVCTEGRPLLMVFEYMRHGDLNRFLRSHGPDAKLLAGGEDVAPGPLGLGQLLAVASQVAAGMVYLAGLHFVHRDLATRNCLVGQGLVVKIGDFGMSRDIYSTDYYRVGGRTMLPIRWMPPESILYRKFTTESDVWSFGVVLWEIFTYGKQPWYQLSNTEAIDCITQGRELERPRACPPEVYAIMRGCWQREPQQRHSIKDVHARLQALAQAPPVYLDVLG

TRKA (440-796) [4] = target: T1, TRKA (440-796); assay: Time-dependent intact protein mass; format: binding
TRKC = TRKC (Homo sapiens, UniProt Q16288); assay: TRKC kinase biochemical assay
Chain of TRKC (Q16288 32-839): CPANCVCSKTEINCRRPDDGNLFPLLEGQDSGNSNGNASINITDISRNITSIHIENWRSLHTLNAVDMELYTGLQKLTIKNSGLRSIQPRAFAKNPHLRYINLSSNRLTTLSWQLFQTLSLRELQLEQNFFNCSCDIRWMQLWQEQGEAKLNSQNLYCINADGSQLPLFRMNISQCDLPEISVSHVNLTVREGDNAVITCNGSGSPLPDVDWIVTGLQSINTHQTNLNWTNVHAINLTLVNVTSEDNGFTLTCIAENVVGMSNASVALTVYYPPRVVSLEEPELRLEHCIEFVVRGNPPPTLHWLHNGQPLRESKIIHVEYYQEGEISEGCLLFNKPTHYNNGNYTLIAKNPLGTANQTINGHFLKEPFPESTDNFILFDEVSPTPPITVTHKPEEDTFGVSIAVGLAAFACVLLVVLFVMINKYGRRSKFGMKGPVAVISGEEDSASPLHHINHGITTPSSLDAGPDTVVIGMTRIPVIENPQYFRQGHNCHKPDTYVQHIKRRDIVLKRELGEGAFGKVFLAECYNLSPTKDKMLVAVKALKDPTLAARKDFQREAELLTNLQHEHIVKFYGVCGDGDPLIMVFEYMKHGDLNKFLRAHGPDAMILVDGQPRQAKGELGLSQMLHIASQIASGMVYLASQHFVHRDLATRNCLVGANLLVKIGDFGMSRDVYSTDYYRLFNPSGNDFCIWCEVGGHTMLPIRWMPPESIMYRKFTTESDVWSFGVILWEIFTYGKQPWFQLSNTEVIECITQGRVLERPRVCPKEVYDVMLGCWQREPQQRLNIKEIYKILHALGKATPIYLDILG

TRKB = TRKB (Homo sapiens, UniProt Q16620); assay: TRKB kinase biochemical assay
Chain of TRKB (Q16620 32-822): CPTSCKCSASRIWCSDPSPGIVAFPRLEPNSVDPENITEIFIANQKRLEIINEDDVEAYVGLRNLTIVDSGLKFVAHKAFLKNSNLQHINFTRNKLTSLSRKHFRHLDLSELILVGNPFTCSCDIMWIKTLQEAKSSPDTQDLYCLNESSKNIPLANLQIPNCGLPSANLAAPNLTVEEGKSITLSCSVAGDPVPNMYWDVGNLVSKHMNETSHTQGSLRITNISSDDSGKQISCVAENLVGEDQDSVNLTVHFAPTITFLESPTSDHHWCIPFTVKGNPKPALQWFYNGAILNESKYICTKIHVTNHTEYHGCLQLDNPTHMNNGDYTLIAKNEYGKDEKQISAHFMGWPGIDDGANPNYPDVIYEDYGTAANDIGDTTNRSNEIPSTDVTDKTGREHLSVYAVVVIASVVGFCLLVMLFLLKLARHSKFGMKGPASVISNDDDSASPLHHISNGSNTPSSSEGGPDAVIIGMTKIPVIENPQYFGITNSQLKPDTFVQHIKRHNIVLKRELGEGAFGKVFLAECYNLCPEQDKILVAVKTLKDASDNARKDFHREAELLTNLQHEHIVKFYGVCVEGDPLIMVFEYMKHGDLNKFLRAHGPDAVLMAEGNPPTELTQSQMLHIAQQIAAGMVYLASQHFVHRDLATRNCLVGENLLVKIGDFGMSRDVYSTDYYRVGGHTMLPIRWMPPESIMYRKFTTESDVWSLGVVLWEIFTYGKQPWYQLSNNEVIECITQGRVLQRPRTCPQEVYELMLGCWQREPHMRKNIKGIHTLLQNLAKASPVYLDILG

GAC (73-598) = assay: Intact protein mass spectrometry, covalent modification of GAC; format: binding
A549 cells [5] = assay: Anti-proliferative assay, A549 cells; format: cell-based; conditions: 72 h
GAC^WT and GAC^K320A = assay: Western blot of acetylation of GAC WT and GAC K320A; format: biochemical; conditions: 45 min
A549 cells [6] = assay: Determination of intracellular glutamate and glutamine levels; format: cell-based; conditions: 16 h treatment
A549 cells [7] = assay: Determination of reactive oxygen species; format: cell-based; conditions: 16 h, flow cytometry
GAC = target: T2, GAC (Macaca mulatta, UniProt F7AIH5); assay: Recombinant GAC enzymatic assay; format: biochemical
T2 sequence (F7AIH5 73-598): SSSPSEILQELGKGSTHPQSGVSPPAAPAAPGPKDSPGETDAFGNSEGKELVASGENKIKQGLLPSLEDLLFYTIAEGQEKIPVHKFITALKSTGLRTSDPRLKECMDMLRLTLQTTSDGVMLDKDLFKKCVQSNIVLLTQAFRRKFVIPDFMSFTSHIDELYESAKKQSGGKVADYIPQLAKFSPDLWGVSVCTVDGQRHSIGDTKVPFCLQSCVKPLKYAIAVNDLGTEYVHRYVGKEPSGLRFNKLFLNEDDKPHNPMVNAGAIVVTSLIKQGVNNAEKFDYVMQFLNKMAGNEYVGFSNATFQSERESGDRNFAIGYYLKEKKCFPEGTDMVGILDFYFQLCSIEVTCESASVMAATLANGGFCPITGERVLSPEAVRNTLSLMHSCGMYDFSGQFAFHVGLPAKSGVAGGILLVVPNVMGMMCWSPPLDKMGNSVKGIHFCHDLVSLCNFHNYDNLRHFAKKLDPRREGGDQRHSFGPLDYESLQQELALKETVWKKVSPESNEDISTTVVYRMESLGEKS

[8] = time-dependent intact protein MS, TRKA

T1 sequence (P04629 440-796): as the sequence (P04629 440-796) above

Covalent binding site identified in TRKA (TRKA (440-796) [1]): Lys544 | Modification rate of Lys544 (TRKA (440-796) [1]; TRKA + compound, 25 °C, 2 h): 95% | Total binding rate of TRKA modified by compound [2]: 99.2% | IC50 (TRKA): 11.5 nM | Ki (TRKA (440-796) [4]): 800 nM | k inact (inactivation rate) (TRKA (440-796) [4]; [8]): 0.0578 min^–1 | k inact/K I (TRKA (440-796) [4]; [8]): 1.20 × 10^3 M^–1·s^–1 | IC50 (TRKC): 1.9 nM | IC50 (TRKB): 1.04 nM
SMILES: C#Cc1cc(-c2cc(Nc3nc(N[C@@H](C)c4ccc(F)cn4)ncc3Cl)n[nH]2)ccc1C=O [Compound 7]
Phosphorylation of TRKA and downstream AKT [3]: efficiently suppress the phosphorylation of TRKA as well as its downstream AKT

SMILES: C#Cc1c(C=O)cccc1CC(=O)Nc1nnc(N[C@@H]2CCN(c3cccnn3)C2)s1 [Compound 14]
Covalent modification of GAC by intact protein MS (GAC (73-598); 8 h, 25 °C): confirmed covalent modification of GAC | Labeling efficiency of GAC (GAC (73-598); intact protein MS, 8 h, 25 °C, theoretical maximum 50%): ~45% | Cellular activity (A549 antiproliferative) (A549 cells [5]): limited efficacy

SMILES: CC(=O)Oc1ccc(CC(=O)Nc2nnc(N[C@@H]3CCN(c4cccnn4)C3)s2)cc1C#N [Compound 16]
Total protein products displaying acetylation (GAC (73-598); MS of GAC-16 after 8 h incubation at 25 °C): 71.05% | Acetylation of wild-type vs Lys320 mutant GAC at low concentrations (GAC^WT and GAC^K320A; ≤2 μM): selectively acetylated wild-type GAC, with no detectable modification of the Lys320 mutant | Acetylation of wild-type vs Lys320 mutant GAC at higher concentrations (GAC^WT and GAC^K320A; ≥10 μM): emerging acetylation signals in the Lys320 mutant | Cellular activity (A549 antiproliferative) (A549 cells [5]): enhanced antiproliferative activities | Glutamine-to-glutamate conversion (intracellular GLU/GLN ratio) (A549 cells [6]): marked reduction | Intracellular reactive oxygen species (ROS) level (A549 cells [7]): significantly increased

SMILES: C#Cc1cc(CC(=O)Nc2nnc(N[C@@H]3CCN(c4cccnn4)C3)s2)ccc1C=O [Compound 15]
Covalent modification of GAC by intact protein MS (GAC (73-598); 8 h, 25 °C): confirmed covalent modification of GAC | GAC enzymatic inhibition compared to the reversible inhibitor 13 (GAC): significantly enhanced GAC enzymatic inhibition | Cellular activity (A549 antiproliferative) (A549 cells [5]): limited efficacy
